The values below come from paper PMC11481179, “Development and Application of Reversible and Irreversible Covalent Probes for Human and Mouse Cathepsin‐K Activity Detection, Revealing Nuclear Activity” (Advanced Science, 2024).

Molecules are shown by their SMILES.

The target of this assay is T1, CTSK (Homo sapiens, UniProt P43235).
T1 sequence (P43235 115-329): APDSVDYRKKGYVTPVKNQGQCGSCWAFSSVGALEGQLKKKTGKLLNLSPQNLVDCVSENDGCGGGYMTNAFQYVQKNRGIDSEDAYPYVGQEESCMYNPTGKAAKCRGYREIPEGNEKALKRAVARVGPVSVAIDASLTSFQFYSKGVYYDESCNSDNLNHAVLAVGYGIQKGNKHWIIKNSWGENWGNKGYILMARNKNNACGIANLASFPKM
The experiment in a line: Recombinant cathepsin labeling by ABPs, in-gel fluorescence. Format: binding. The conditions noted are these: ABP 5 µM, 1 h, 37 °C, pH 5.5, CTSK 0.5–280 ng. The procedure: The ABPs were tested for binding to recombinant CTSK compared to the closely related CTSB, CTSL, and CTSS, which are highly abundant and active in most biological samples. Using the in‐gel fluorescent analysis that detects the stable enzyme‐probe complex, active CTSK was labeled with each of the four probes, and significant selectivity was found in three probes GD32, GD37, and GD42 (Figure 1a). […] However, the minimum amount of active CTSK the remaining probes detected was much higher, ranging from 8 to 70 ngs, (Figure 1b).
Figure 1 In vitro evaluation of CTSK targeted compounds. a) Labeling of recombinant cathepsins by ABPs. Recombinant cathepsins were treated with increasing concentrations of ABPs for 1 h. Samples were separated by SDS‐PAGE and scanned for fluorescence by a Typhoon scanner at 635/670 nm. All probes show dose‐dependent binding to the CTSK, and have lower affinity to CTSS except GD36, b) CTSK [0.5–280 ng] was labeled with the indicated ABPs [5 µM]. Incubations were performed for 1 h at 37 °C, at pH 5.5. Samples were analyzed as described in (a). c) Recombinant cathepsins B, K, L, and S [0.5 µM] were first treated with the indicated concentrations of the inhibitor GD30 or vehicle for 1 h followed by incubation with a pan cathepsin probe GB123 [1 µM] for 1 h. Samples were analyzed as described in (a). d) Quantitative analysis of CTSK inhibition by GD30 presented in (d), data represent mean values ± standard error, n = 3. e) IC50 plot of GD30 inhibition of CTSK activity. […]
emission wavelengths of 370 and 460 nm, respectively. Cathepsin concentrations in the assay were 0.4 nM (CTSK) or 5 nM (CTSS, CTSB, and CTSL). […] For irreversible inhibitors, reaction data were fitted to the one-phase association formula in GraphPad Prism 9 software: Y=Y0 + (Plateau-Y0)*(1-exp(-K*X)) where in this case Y0 and Y represent fluorescence signal at times 0 and t, respectively, K represent the observed reaction rate kobs and X the inhibitor concentration. […]
reaction was stopped and samples were analyzed as described above. […]

As to `C#CCNC(=O)[C@H](CC(C)C)N[C@@H](c1ccc(-c2ccc(S(=O)(=O)CCNC(=O)CCCCC[N+]3=C(/C=C/C=C/C=C4/N(C)c5ccc(S(=O)(=O)O)cc5C4(C)C)C(C)(C)c4cc(S(=O)(=O)O)ccc43)cc2)cc1)C(F)(F)F` [GD32], the “minimum amount of active CTSK detected” value came out at 0.5 ng.
